For 89 molecules, melting point results are on record in a melting point compilation (Tetko et al.; mined from patent text by program, amines drawn as free bases though some values may be those of a salt).

As a reminder, the melting point is the temperature of the solid-liquid transition.

As to `COc1ccc(N2CCN(c3c(C)c(C)c4c(c3C)C(CCc3ccccc3)C(C)(C)O4)CC2)cc1` (centres undefined), the melting point lay in the range of 92 to 94 °C. `CCOC(=O)Cc1ccc(N2Cc3ccccc3C2=N)cc1` yielded a melting point of 204 to 206 °C. `O=C(CCN1CCOCC1)Nc1ccc2c(=O)c3ccc(NC(=O)CCN4CCOCC4)cc3[nH]c2c1`: the melting point was more than 320 °C. Molecule `Cc1c(CC(N)=O)c2cc(OCCCP(=O)(O)O)ccc2n1Cc1ccccc1` had a melting point of 199 to 203 °C. Turning to `CCOC(=O)CN(C=C(C(=O)OCC)C(=O)OCC)N=Cc1ccccc1`, the melting point is 105 to 106 °C. Take `CCc1cccc(CNC[C@@H](O)[C@H](Cc2cc(F)cc(F)c2)NC(=O)N2CCC(CS(C)(=O)=O)CC2)c1`: the melting point lay in the range of 130 to 134 °C.

`Cc1c(CN2CCOCC2)ccc2c1-c1[nH]nc(-c3ccsc3)c1C2` displayed a melting point of 272 to 274 °C. Under `c1ccc2c(c1)CCc1c(CN3CCN(c4ccc5ccccc5n4)CC3)n[nH]c1-2` stands 154 to 155 °C.

Molecule `COC(=O)c1ccc(C(=O)NCc2cccc3ccccc23)s1` showed a melting point of 125 °C. `COc1ccc(C(=O)N(C)c2ccc(C(=O)O)cc2)cc1` registered a melting point of 157 to 160 °C. In turn, `O=S1(=O)NCN(CCF)c2ccc(Br)cc21` had a melting point of 122 to 124 °C. Consider `CC(=O)N(C(C)=O)c1nc2n(n1)CCc1ccccc1-2`, for which the melting point lay in the range of 139 to 140 °C. `NN=c1cc(-c2c[nH]nc2-c2cccc(Cl)c2)cc[nH]1` gave a melting point of 163 to 164 °C.

`CCCCCCCCCN(C[C@H]1CC[C@H](CN(CCCCCCCCC)C(=O)Nc2ccc(N(C)C)cc2)CC1)C(=O)Nc1ccc(N(C)C)cc1` registered a melting point of 96 to 98 °C. In turn, `CC(C)(C)NC(=O)[C@@H]1[C@H](O)CCN1C(=O)[C@@H](O)[C@H](Cc1ccccc1)NC(=O)[C@H](CC(N)=O)NC(=O)OCc1ccccc1` came in with a melting point of 109 to 112 °C.

In the case of `Cc1ccc(C)n1CCNC(=O)Nc1ccc(Cl)cc1`, the melting point is 175 to 177 °C.

`Cn1cncc1C(O)(c1ccc(Cl)cc1)c1ccc2nc(C#Cc3ccccc3)cc(-c3cccc(Cl)c3)c2c1` (centres undefined) gave a melting point of 154 °C. `CC(=CC(=O)O)C(=O)NN`: the melting point lay within 281 to 284 °C. On to `Nc1nc2ccccc2c2c1ncn2CCCCCC(=O)c1ccccc1`, for which the melting point lay in the range of 163 to 165 °C. For the molecule `CC[C@@H]1C(=O)N(c2ccc(C#N)c(Cl)c2)[C@@H](C)[C@H]1O`, the melting point fell in the range of 109 to 110 °C. `O=c1[nH]c2sc3ccc(Br)cc3c2[nH]c1=O` returned a melting point of more than 320 °C.

In turn, `CCCS(=O)(=O)Nc1ccc(-c2ccc(C(=O)O)c(=O)[nH]2)cc1` had a melting point of more than 260 °C. The result for `CCCc1nnc(-c2ccc([N+](=O)[O-])cc2)n1-c1ccc(OC)cc1` reads 140 °C; that for `Cc1cccnc1C(=O)c1[nH]c2cc(Cl)ccc2c1CC(=O)O`, 195 to 196 °C; that for `CC(C)(C)CC(=O)c1ccc2c(c1)C=C(C(=O)O)C(C(F)(F)F)O2` (centres undefined), 198 to 200 °C. The molecule `Cc1c(-c2ccccc2)nn(C(C)(C)C(=O)N(C)C)c1Cl` gave a melting point of 96 to 99 °C. Under `CCC#CC(C)(C)NC(=O)C(Br)CC` (centres undefined) stands 53 to 55 °C. Under `CCOC(=O)NC(=S)OCc1ccc(Cl)cc1` stands 95 °C; under `O=C1CC(SCc2ccccc2)N1` (centres undefined), 50 to 51 °C; under `COCCCS(=O)(=O)NC(=O)/C=C/c1cc(OC(C)C)nn1Cc1ccc(C(F)(F)F)cc1Cl`, 138 to 139 °C. Under `CNc1cc(Oc2ccc3c(c2)OCCN3C(=O)Nc2ccc(C)c(C(F)(F)F)c2)ncn1` stands 180 to 182 °C.

The molecule `O=C(O)CCc1c(-c2cc(Cl)ccc2O)c2cc(C(F)(F)F)ccc2[nH]c1=O` registered a melting point of 255 to 258 °C. The molecule `COc1cc(Sc2ccccc2CCl)ccc1Cl` had a melting point of 57 to 59 °C. `O=C(O)Cc1ccc(OCc2ccc(F)cc2C(=O)O)cc1` gave a melting point of 195 to 197 °C. On to `CCCC(=O)OCC1OC(n2cnc3c(OC)nc(N)nc32)C(O)C1O` (centres undefined), for which the melting point is 105 °C. On to `Cc1cc2c([nH]c1=O)C(=O)c1ccccc1C2=O`, for which the melting point was more than 300 °C. The result for `CC(C)c1cccc(N2CC(=O)NC(=O)N2)c1` reads 130 to 132 °C; that for `CC(C(=O)O)c1ccc(C(=O)c2ccc(Cl)s2)cc1` (centres undefined), 137 °C. Regarding `O=c1c(CCCCO)c(O)c2cccnc2n1-c1ccccc1`, the melting point stood at 206 °C. Consider `CCCSC(=S)N1C(CO)Cc2c([nH]c3ccccc23)C1C` (centres undefined), for which the melting point fell in the range of 115 to 118 °C. Under `Cn1cncc1-c1cccc(Nc2nccc3ccccc23)c1` stands 208 to 209 °C; under `O=C1NCCN1Cc1ccc2ccccc2c1`, 149 to 152 °C; under `CSc1nccc(C(=O)C(=O)c2ccc(F)cc2)n1`, 74 to 76 °C. Molecule `O=C1OC(=O)c2c(-c3ccccc3)c3ccccc3c3cccc1c23` gave a melting point of 158 to 161 °C. Consider `CCCc1nc2cnc3ccccc3c2n1CCCCNS(=O)(=O)c1ccccc1`, for which the melting point is 156 to 157 °C.

`O=C(NS(=O)(=O)c1ccccc1-c1ccc(Cn2c(CCCC(F)(F)F)nn(-c3ccccc3C(F)(F)F)c2=O)cc1)c1ccccc1`: the melting point is 197 to 199 °C. On to `Cc1nccc2c3ccc(OCCC(C)C)cc3n(CCC(C)C)c12`, for which the melting point was 106 °C. The result for `O=c1c(=NNc2ccccc2)c(=O)n(-c2ccccc2)c2ccccc2n1CCC1C2CC3CC(C2)CC1C3` (centres undefined) reads 130 to 131 °C; that for `Nc1nc(C2CCN(C(=O)c3ccccc3)CC2)c2ccccc2n1`, 138 °C; that for `COc1cc(C(=O)N2CCN(C(=O)OC(C)(C)C)C(C(=O)N(C)C)C2)cc(OC)c1OC` (centres undefined), 146 to 147 °C.

In turn, `C[C@@H]1Cc2ccsc2[C@H](C)N1CCNS(=O)(=O)c1ccc([N+](=O)[O-])cc1` (relative stereo) came in with a melting point of 116 to 119 °C.

In turn, `COC1(C(O)CN2CCC(n3c(=O)[nH]c4ccccc43)CC2)COc2ccccc2O1` (centres undefined) showed a melting point of 143 to 144 °C. Under `C=CCOc1ccccc1C1C=NNC(=O)C1` (centres undefined) stands 93 to 95 °C; under `O=C(O)COc1ccc2cc(-c3oc4ccccc4c3C(=O)c3ccccc3)ccc2c1`, 178 to 181 °C.

Take `CCOC(=O)c1cc2c3n(ccc-2n1)C(Br)C(C)=N3` (centres undefined): the melting point lay in the range of 224 to 226 °C. `O=C1CC2CCSc3sccc3C2=NN1` (centres undefined) had a melting point of 215 to 217 °C. In turn, `O=C(Cc1ccccc1)N=C1SCCN1Cc1ccc(Cl)nc1` showed a melting point of 157 to 158 °C. Molecule `O=C(Nc1ccc(-c2ncc(-c3ccc(NC(=O)C4CCCCCC4)cc3)[nH]2)cc1)c1ccc([N+](=O)[O-])cc1` displayed a melting point of 236 to 238 °C.

Take `CN(Cc1ccccc1)C(=O)CCc1nc(-c2ccc(Cl)cc2)co1`: the melting point lay in the range of 99 to 100 °C.

`c1ccc2c(c1)CC(N1CCN(c3ccc4c(c3)OCCO4)CC1)C2` had a melting point of 183 to 185 °C. In turn, `COc1ccc(CNC(=O)c2cccnc2N)cc1` had a melting point of 165 to 166 °C.

Regarding `COC(=O)C12COc3cc(C(F)(F)F)ccc3C1=NN(C(=O)Nc1ccc(Cl)cn1)C2` (centres undefined), the melting point lay in the range of 196 to 198 °C.

Regarding `Cc1nn(C)c(C(N)=O)c1Cl`, the melting point was determined as 101 °C. Take `Cc1cc(N)ncc1I`: the melting point lay within 198 to 200 °C. For `CN(C(=O)c1nn(-c2ccc(Cl)cc2Cl)c(-c2ccc(Cl)cc2)c1F)N1CCCCC1`, the melting point was 184 °C. In turn, `O=C1CCC(N2Cc3c(OCc4cccc(Cl)c4Cl)cccc3C2=O)C(=O)N1` (centres undefined) had a melting point of 272 to 274 °C. The result for `COCOc1cc(/C=C/C(=O)/C=C/c2cc(OCOC)cc(OCOC)c2)cc(OCOC)c1` reads 90 to 92 °C. Molecule `O=C(Nc1nnn(CC(F)(F)F)n1)C1c2ccccc2Oc2ccccc21` showed a melting point of 209 to 210 °C. The molecule `CS(=O)(=O)c1ccc(-n2cc(-c3cccc(F)c3)nc2-c2ccc(Cl)cc2)cc1` yielded a melting point of 194 to 196 °C. The result for `COc1ccc(CCC(=O)NNC(=O)c2ccc3ncsc3c2)cc1C(F)(F)F` reads 208 to 209 °C; that for `CCC(C)(CC)C1=NN=C(NC(=O)c2c(OC)cccc2OC)SC1`, 134 to 140 °C; that for `O=C1NCC(Cc2cccc(Cl)c2)O1` (centres undefined), 113 to 114 °C. The molecule `CC(C)=CCCC(C)=CCOc1ccc(C(=O)Nc2cccnc2)cc1` had a melting point of 102 to 103 °C. Molecule `Cc1nc(-c2ccc(C(=O)N3Cc4cccn4Cc4ccccc43)cc2)n(C)n1` returned a melting point of 193 to 195 °C. The result for `CSc1nc(-c2ccc(F)cc2)nc(-c2ccccn2)n1` reads 158 °C; that for `CCOC(=O)C1C=CC(c2ccccc2)n2c(=O)n(CCl)c(=O)n21` (centres undefined), 145 to 146 °C. The result for `Cc1ccc(-c2nc(C)cc(O)n2)cc1` reads 206 to 207 °C; that for `Cc1cc(N)nc(C)c1-c1ccccc1`, 105 to 112 °C; that for `CC(C)c1cc(C(C)C)c(CC(=O)NS(=O)(=O)Oc2c(C(C)C)cc(C=O)cc2C(C)C)c(C(C)C)c1`, 71 to 76 °C. Molecule `COc1cc(C=CC(=O)COc2ccccc2)ccc1O` registered a melting point of 85 to 87 °C. Consider `NS(=O)(=O)c1ncccc1C1=NOCC1`, for which the melting point was in the range of 155 to 156 °C. Molecule `COc1cc(N)c(Cl)cc1C(=O)NCCNCc1ccc(CN(C)C)o1` returned a melting point of 91 to 93 °C. In turn, `c1ccc2c3ccocc-3nc2c1` displayed a melting point of 109 to 111 °C. In turn, `O=C(O)Cc1cc(=O)n(Cc2ccc(Cl)cc2)c2ccccc12` showed a melting point of 208 to 209 °C.

`Brc1cccc2nc(N3CCNCC3)ccc12` registered a melting point of 94 to 96 °C.

`COc1cc(CCCC2SC(=O)NC2=O)ccc1OCc1coc(-c2ccccc2)n1` (centres undefined) displayed a melting point of 131 to 132 °C.

The molecule `O=Cc1cccc2oc3ccccc3c12` yielded a melting point of 66 to 68 °C. Molecule `CCCc1nc2c(N)nc(C)c(C)c2n1CCCS(=O)(=O)c1ccc(Cl)cc1` registered a melting point of 186 to 188 °C. Turning to `CCC(=CC(CNC(=O)c1cccnc1C)=NO)C(C)[N+](=O)[O-]` (centres undefined), the melting point was in the range of 128 to 129 °C.
